Here are results for 6 compounds from ChEMBL document CHEMBL3232863, “Small molecule disruptors of the glucokinase-glucokinase regulatory protein interaction: 3. Structure-activity relationships within the aryl carbinol region of the N-arylsulfonamido-N'-arylpiperazine series” (J Med Chem, 2014).

Series [1] is described as follows: (§1) Oral bioavailability in Sprague-Dawley rat at 10 mg/kg. Type of series: ADME, organism-based. Conditions: Sprague-Dawley, in vivo.
The nature of series [2]: (§2) AUC in Sprague-Dawley rat at 10 mg/kg, po. The class given is ADME, organism-based, Plasma. Set-up: dose 10 mg/kg, route oral. The settings on record: Sprague-Dawley, plasma.
In series [3] the test system is Rattus norvegicus. Described as §1. Type of series: ADME, organism-based. Conditions: in vivo.
For series [4], the system named is Rattus norvegicus. The series is described as §2. The class given is ADME, organism-based, Plasma. Set-up: dose 10 mg/kg, route oral. Conditions: in vivo.
Series [5] in a line: Cmax in C57BL/6 mouse at 10 mg/kg, po. The settings on record: in vivo. Set-up: dose 10 mg/kg, route oral. The class given is ADME, organism-based.
Series [6] can be described thus: Oral bioavailability in C57BL/6 mouse at 10 mg/kg. The class given is ADME, organism-based. The settings on record: in vivo.
Series [7] is described as follows: AUC in C57BL/6 mouse at 10 mg/kg, po. Type of series: ADME, organism-based. Set-up: dose 10 mg/kg, route oral. Conditions: plasma.
Series [8] is described as follows: Tmax in C57BL/6 mouse at 10 mg/kg, po. The class given is ADME, organism-based. Also on record: dose 10 mg/kg, route oral. Conditions: in vivo.

In the case of `CC#C[C@H]1CN(S(=O)(=O)c2ccc(N)nc2)CCN1c1ccc(S(N)(=O)=O)cc1`, the bioavailability in series [1] was 5%. Besides, the AUC in series [2] is 0.26 µM·h.

Consider `CC#C[C@H]1CN(S(=O)(=O)c2ccc(N)nc2)CCN1c1ccc(S(=O)(=O)NC)cc1`, for which the F with Rattus norvegicus [3] is 1.5%. In addition, in the series on Rattus norvegicus [4], the area under the curve (AUC) is 0.03 µM·h.

Turning to `CC#C[C@H]1CN(S(=O)(=O)c2ccc(N)nc2)CCN1c1ccc([S@](=N)(=O)C(F)(F)F)cc1`, in series [5], the Cmax is 46.6 µM. Further, the bioavailability in series [6] came out at 53%; in series [1] it was 51%. Besides, the results for the AUC in series [2] and in series [7] were 25.3 µM·h and 362 µM·h, respectively. Further, in series [8], the Tmax was determined as 1 h.

Regarding `CC#C[C@H]1CN(S(=O)(=O)c2ccc(N)nc2)CCN1c1ccc(C(O)(C(F)(F)F)C(F)(F)F)cc1`, the concentration in series [5] peaked (Cmax) at 5.82 µM. Besides, the AUC was 20 µM·h in series [2] and 64.8 µM·h in series [7]. Moreover, in series [8], the time to peak (Tmax) is 5 h.

Consider `CC#C[C@H]1CN(S(=O)(=O)c2ccc(N)nc2)CCN1c1ccc([C@@](C)(O)C(F)(F)F)cn1`, for which the Cmax in series [5] was 9.71 µM. The bioavailability in series [6] and in series [1] was 47% each time. For the same compound, the AUC in series [2] was determined as 28.4 µM·h; in series [7], 37 µM·h. Further, in series [8], the Tmax is 0.25 h.

As to `CC#C[C@H]1CN(S(=O)(=O)c2ccc(N)nc2)CCN1c1ccc([C@](O)(CO)C(F)(F)F)cc1`, the bioavailability in series [1] is 48%. Besides, the AUC in series [2] turned out to be 7.1 µM·h.

Broadly, the bioavailability is the share of a dose that reaches the circulation, judged against a reference dose that is usually intravenous. Low values mean poor availability, high ones good availability. By AUC is commonly meant concentration integrated over time. The low end stands for low exposure, the high end for high exposure. For orientation: Cmax means the highest concentration seen after dosing. In general, Tmax refers to the time at which the peak concentration occurs.
